From paper PMC4199632, “Exploring the Anti-Cancer Activity of Novel Thiosemicarbazones Generated through the Combination of Retro-Fragments: Dissection of Critical Structure-Activity Relationships” (PLoS ONE, 2014)

Tests used:
[1] = test system: HCT116 p53+/+ colon cancer cells; test: Proliferation assay (MTS, 96 h); assay type: cell-based, human; details: for IC50: Homo sapiens, HCT-116, 96 h incubation, MTS, mean ±SD (3 experiments)
Description: (§1) The human cancer cell types (neuroepithelioma (SK-N-MC), colon cancer (HCT116 with wild-type p53 (p53^+/+)), Burkitt's lymphoma (Raji) and cervical carcinoma (HeLa)) cells and normal human dermal fibroblasts (NHDF) were obtained from the American Type Culture Collection (ATCC, Manassas, VA, USA). HCT116 null p53 (p53^−/−) cells were obtained from the Maria Sklodowska-Curie Memorial Cancer Center and Institute of Oncology, Poland.
(§2) The SK-N-MC cells were cultured in minimum essential medium (MEM; Life Technologies, Grand Island, New York, USA) containing 10% (v/v) fetal bovine serum (FBS; Life Technologies), 1 mM sodium pyruvate (Life Technologies), 1% (v/v) non-essential amino acids (Life Technologies), 2 mM L-glutamine (Life Technologies), 100 U/mL penicillin (Life Technologies), 100 µg/mL streptomycin (Life Technologies) and 0.28 µg/mL fungizone (Bristol Myers Squibb Pharmaceuticals, Montreal, Canada). The HCT116 and NHDF cells were grown in Dulbecco's modified Eagle's medium (DMEM; Sigma-Aldrich) supplemented with 12% (v/v) heat-inactivated FBS (HCT116; Life Technologies) or 15% (v/v) FBS (NHDF; Life Technologies), 100 µg/mL of gentamicin (Polfa Warszawa S.A., Warsaw, Poland), 100 µg/mL of streptomycin (Polfa) and 100 U/mL of penicillin (Polfa). The Raji and HeLa cells were cultured in Roswell Park Memorial Institute medium (RPMI-1640; Sigma-Aldrich) with the addition of 10% (v/v) heat-inactivated FBS (Life Technologies) and the supplements described for SK-N-MC cells above. All cell lines were cultured under standard conditions at 37°C in a humidified atmosphere at 5% CO2 and were subcultured every 3–4 days as required.
(§3) The cells were seeded in 96-well plates (SK-N-MC: 1.5×10^4 cells/well; HeLa: 5.0×10^3 cells/well; Raji: 3.0×10^3 cells/well; HCT116: 3.5×10^3 cells/well; NHDF: 3.0×10^3 cells/well) 24 h prior to the addition of the novel compounds. The assays were performed using a 72 h (SK-N-MC, Raji, HeLa) or 96 h (HCT 116, NHDF) incubation period with the agents at 37°C. […] Additionally, DFO and Dp44mT were included as positive controls in all experiments as their activity is well characterized, [42], [50].
(§4) Chelator stock solutions were prepared in DMSO and diluted in media so that the final [DMSO] <0.05%. The results were expressed as a percentage of the control and the resulting IC50 values were calculated using GraphPad Prism 5 (GraphPad Software, Inc., La Jolla, CA, USA). The IC50 was defined as the concentration necessary to reduce the absorbance to 50% of the untreated control. Each individual compound was tested in triplicate in a single experiment, with each experiment being repeated three times. After incubation of HCT 116 and NHDF cells with the tested compounds, 20 µL of the CellTiter 96 Aqueous One Solution - MTS (Promega, Madison, WI, USA) solution was added to each well (with 100 µL of DMEM without phenol red) and incubated for 1 h/37°C. The optical density of the samples was analyzed at 490 nm.

[2] = test system: HCT116 p53−/− colon cancer cells; test: Proliferation assay (MTS, 96 h); assay type: cell-based, human; details: for IC50: Homo sapiens, HCT-116, 96 h, 96 h incubation, MTS, mean ±SD (3 experiments)
Description: as §1, §2, §3, §4

[3] = test system: Raji Burkitt's lymphoma cells; test: Proliferation assay (MTT, 72 h); assay type: cell-based; details: Homo sapiens, 72 h incubation, mean ±SD (3 experiments)
Description: as §1, §2, §3, §4
(§5) MTT (3-[4,5-dimethylthiazol-2-yl]-2,5-diphenyltetrazolium bromide) was used to evaluate the anti-proliferative effects of the chelators in SK-N-MC and Raji cells. Following incubation with the investigated compounds, 10 µL of MTT (5 mg/mL in PBS; Sigma-Aldrich) was added to each well. After a 2 h (SK-N-MC) or 4 h (Raji) incubation, the plates were centrifuged, and the cells were lysed with 100 µL of 10% SDS-50% isobutanol in 0.01 M HCl (SK-N-MC) or DMSO (Raji). The absorbance was measured at 570 nm. The anti-proliferative effects of these novel agents on HeLa cells were estimated using crystal violet staining (0.5% crystal violet solution for 10 min). Finally, the wells were rinsed with water and the cells were lysed with 2% SDS. The optical density of the samples was analyzed at 595 nm.

[4] = test system: SK-N-MC neuroepithelioma cells; test: Proliferation assay (MTT, 72 h); assay type: cell-based; details: Homo sapiens, 72 h incubation, mean ±SD (3 experiments)
Description: as §1, §2, §3, §4, §5

[5] = test system: HeLa cervical carcinoma cells; test: Proliferation assay (crystal violet, 72 h); assay type: cell-based; details: Homo sapiens, 72 h incubation, mean ±SD (3 experiments)
Description: as §1, §2, §3, §4, §5

[6] = test system: normal human dermal fibroblast (NHDF) cells; test: Proliferation assay (MTS, 96 h), normal mortal cells; assay type: cell-based; details: Homo sapiens, NHDF, 96 h, 96 h incubation, mean ±SD (3 experiments)
Description: as §1, §2, §3, §4

[7] = Ascorbate oxidation assay (iron complexes); assay type: biochemical; details: iron complex; for Ascorbate oxidation (% of the control): FeIII 10 µM, ascorbate 100 µM
Description: The ability of the iron complexes of the novel ligands to mediate the oxidation of the physiological substrate, ascorbate, was examined using established methods, [18], [22], [52], [53]. Ascorbic acid (100 µM) was prepared immediately prior to each experiment and was incubated in the presence of Fe^III (10 µM; as FeCl3), the chelator (1–60 µM) and a 50-fold molar excess of citrate (500 µM). The absorbance at 265 nm was measured after 10 and 40 min and the difference in absorbance at these time points was calculated. The results of these experiments were expressed as iron-binding equivalents (IBE) due to the different denticity of the chelators examined. The chelators, Dp44mT, DFO and ethylenediaminetetraacetic acid (EDTA) were used as controls as the ability of their iron complexes to oxidize ascorbate has been extensively characterized, [15], [52], [53].
The ability of the iron complexes of the novel TSCs to catalyze the oxidation of the physiological substrate, ascorbate, was important to assess as redox cycling may play a critical role in their anti-proliferative activity, [15], [18], [52], [53]. Thus, the oxidation of ascorbate mediated by the iron complexes of series 1–6 were examined in comparison to the iron complexes of the control compounds, DFO, EDTA and Dp44mT, as the ability of the latter to oxidize ascorbate is well characterized, [15], [52], [53], [68]. The results were expressed as a percentage of the control (no chelator) at iron-binding equivalents (IBEs) of 0.1 (excess “free” iron), 1 (iron-chelator complexes with a fully filled coordination sphere), or 3 (excess free chelator), due to the different denticity of the chelators examined (Fig. 10).
Figure 10 Effect of the iron complexes of (A) series 1, (B) series 2, (C) series 3, (D) series 4, (E) series 5 and (F) series 6 chelators, relative to DFO, Dp44mT and EDTA, on ascorbate oxidation. Chelators at iron-binding equivalent (IBE) ratios of 0.1, 1, and 3 were incubated in the presence of Fe^III (10 µM) and ascorbate (100 µM). The UV-Vis absorbance at 265 nm was recorded after 10 and 40 min, and the difference between the time points was calculated. Results are mean ±SD (3 experiments).

[8] = test system: HCT116 p53+/+, HCT116 p53−/−, Raji, HeLa, SK-N-MC and NHDF cells; test: Proliferation assay, ranges stated over several cell-types; assay type: cell-based, human
Description: as §1, §2, §3, §4, §5

SMILES	IC50 [1]	IC50 [2]	IC50 [3]	IC50 [4]	IC50 [5]	IC50 [6]	Ascorbate oxidation (% of the control) ([7]; IBE 3)	Ascorbate oxidation compared with controls ([7]; IBE 3)	Therapeutic index NHDF vs. HCT116 p53+/+ ([1]; NHDF cell IC50 divided by HCT116 p53+/+ IC50)	Therapeutic index NHDF vs. HCT116 p53−/− ([2]; NHDF cell IC50 divided by HCT116 p53−/− IC50)	IC50 ([8]; Homo sapiens, HCT-116, range over HCT116 p53+/+ and p53−/− cells and over the compounds named, read-out: IC50 range in HCT116 cells)	Therapeutic index, NHDF relative to HCT116 cells ([8]; range over HCT116 p53+/+ and p53−/− and over the compounds named)	Ascorbate oxidation (% of the control) ([7]; IBE 0.1)	Ascorbate oxidation (% of the control) ([7]; IBE 1)
CCN1CCN(C(=S)NN=C(c2ccccn2)c2ccccn2)CC1 [1a]	0.02 ± 0.002 µM	0.04 ± 0.003 µM	0.08 ± 0.02 µM	0.18 ± 0.09 µM	0.48 ± 0.31 µM	0.017 ± 0.004 µM								
S=C(N/N=C/c1ccc2ccccc2n1)N1CCOCC1 [2c]	1.49 ± 0.02 µM	1.56 ± 1.12 µM	0.06 ± 0.01 µM	1.4 ± 0.69 µM	1.75 ± 0.33 µM	3.27 ± 0.88 µM								
S=C(N/N=C/c1ccc2ccccc2n1)N1CCN(c2cnccn2)CC1 [2e]	0.088 ± 0.044 µM	0.48 ± 0.15 µM	0.29 ± 0.11 µM	0.48 ± 0.1 µM	1.56 ± 0.44 µM	9.44 ± 3.84 µM	200–265%							
CCN1CCN(C(=S)N/N=C/c2ccc3cccc(O)c3n2)CC1 [3a]	9.25 ± 1.42 µM	8.83 ± 0.63 µM	0.2 ± 0.02 µM	0.82 ± 0.61 µM	3.41 ± 1.46 µM	15.8 ± 4.6 µM		increased levels of ascorbate oxidation						
Oc1cccc2ccc(/C=N/NC(=S)N3CCN(c4ccccc4)CC3)nc12 [3b]	4.18 ± 1.46 µM	4.67 ± 2.04 µM	0.19 ± 0.02 µM	> 6.25 µM	8.45 ± 2.09 µM	8.88 ± 1.07 µM								
Oc1cccc2ccc(/C=N/NC(=S)N3CCOCC3)nc12 [3c]	0.004 ± 0.002 µM	0.017 ± 0.006 µM	0.02 ± 0.01 µM	> 6.25 µM	0.18 ± 0.07 µM				2650	624	0.002 to 0.017 µM	18–2650		
Oc1cccc2ccc(/C=N/NC(=S)N3CCN(c4ccccn4)CC3)nc12 [3d]	8.41 ± 1.78 µM	8.46 ± 0.25 µM	0.12 ± 0.04 µM	> 6.25 µM	6.59 ± 0.13 µM	10.2 ± 2.4 µM								
Oc1ccc2cccnc2c1/C=N/NC(=S)N1CCN(c2ccccc2)CC1 [4b]	7.45 ± 0.66 µM	8.88 ± 2.53 µM	2.23 ± 1.2 µM	4.46 ± 0.78 µM	4.38 ± 0.95 µM	10.1 ± 1.2 µM								
Oc1ccc2cccnc2c1/C=N/NC(=S)N1CCN(c2ccccn2)CC1 [4d]	9.15 ± 1.19 µM	6.84 ± 5.48 µM	1.55 ± 0.4 µM	4.54 ± 1.6 µM	2.73 ± 0.55 µM	10.1 ± 2.7 µM								
Oc1ccc2cccnc2c1/C=N/NC(=S)N1CCN(c2cnccn2)CC1 [4e]	10.1 ± 0.7 µM	9.44 ± 1.35 µM	4.55 ± 2.52 µM	4.17 ± 1.44 µM	3.49 ± 0.04 µM	9.56 ± 1.44 µM								
CN(C(=S)N/N=C/c1c(O)ccc2cccnc12)C1CCCCC1 [4f]	19 ± 0.5 µM	18.9 ± 3.6 µM	0.46 ± 0.23 µM	> 6.25 µM	13.3 ± 1 µM	9.18 ± 3.68 µM								
CCN1CCN(C(=S)N/N=C/c2cnc3ccccc3n2)CC1 [5a]	6.15 ± 1.28 µM	8.72 ± 1.64 µM	0.11 ± 0.02 µM		1.12 ± 0.03 µM	2.73 ± 1.77 µM								
S=C(N/N=C/c1cnc2ccccc2n1)N1CCN(c2ccccc2)CC1 [5b]	3.92 ± 0.74 µM	2.24 ± 1.47 µM	0.5 ± 0.05 µM	3.44 ± 1.12 µM	6.05 ± 2.73 µM	9.61 ± 0.9 µM								
S=C(N/N=C/c1cnc2ccccc2n1)N1CCN(c2ccccn2)CC1 [5d]	9.4 ± 0.8 µM	9.41 ± 1.04 µM	0.49 ± 0.09 µM	2.33 ± 0.09 µM	1.78 ± 0.77 µM	7.13 ± 0.82 µM		decreased ascorbate oxidation relative to the control						
S=C(N/N=C/c1cnc2ccccc2n1)N1CCN(c2cnccn2)CC1 [5e]	5.73 ± 0.75 µM	8.49 ± 3.05 µM	0.27 ± 0.01 µM	1.98 ± 0.68 µM	3.77 ± 1.71 µM	15.8 ± 5.1 µM		increased levels of ascorbate oxidation						
CCN1CCN(C(=S)N/N=C/c2ccccc2O)CC1 [6a]	> 25 µM	> 25 µM	10.2 ± 6.6 µM	> 6.25 µM	22.1 ± 5.4 µM	> 25 µM		decreased ascorbate oxidation relative to the control						
Oc1ccccc1/C=N/NC(=S)N1CCN(c2ccccn2)CC1 [6d]	9.7 ± 2.5 µM	10.6 ± 1.2 µM	2.6 ± 0.33 µM	5.42 ± 0.64 µM	16.4 ± 4.5 µM	18.4 ± 1.9 µM		decreased ascorbate oxidation relative to the control						
Oc1ccccc1/C=N/NC(=S)N1CCN(c2cnccn2)CC1 [6e]	10.9 ± 0.7 µM	10.7 ± 1 µM	9.83 ± 2.05 µM	> 6.25 µM	19.2 ± 2.5 µM	> 25 µM								
O=C(O)CN(CCN(CC(=O)O)CC(=O)O)CC(=O)O [EDTA, ethylenediaminetetraacetic acid, reference compound]							936%						208%	449%
